Measured values reported in ChEMBL document CHEMBL4387769 (Bioorg Med Chem, 2019).

Key:
[1] = target: 5-hydroxytryptamine receptor 2A (Homo sapiens, UniProt P28223); experiment: Displacement of [3H]ketanserin from human 5HT2AR expressed in CHO-K1 cell membranes after 1 hr by microbeta plate reader method
D(2) dopamine receptor [2] = target: D(2) dopamine receptor (Homo sapiens, UniProt P14416); experiment: Displacement of [3H]raclopride from human dopamine D2L receptor expressed in HEK293 cells incubated for 1 hr by microbeta plate reader method; assay type: cell-based
[3] = target: T1, 5-hydroxytryptamine receptor 7 (Homo sapiens, UniProt P34969); experiment: Displacement of [3H]5-CT from human 5HT7B receptor expressed in HEK293 cell membranes after 1 hr by microbeta plate reader method
[4] = target: T2, 5-hydroxytryptamine receptor 1A (Homo sapiens, UniProt P08908); experiment: Displacement of [3H]-8-OH-DPAT from human 5HT1AR expressed in HEK293 cell membranes after 1 hr by microbeta plate reader method
T2 sequence (P08908 whole entry): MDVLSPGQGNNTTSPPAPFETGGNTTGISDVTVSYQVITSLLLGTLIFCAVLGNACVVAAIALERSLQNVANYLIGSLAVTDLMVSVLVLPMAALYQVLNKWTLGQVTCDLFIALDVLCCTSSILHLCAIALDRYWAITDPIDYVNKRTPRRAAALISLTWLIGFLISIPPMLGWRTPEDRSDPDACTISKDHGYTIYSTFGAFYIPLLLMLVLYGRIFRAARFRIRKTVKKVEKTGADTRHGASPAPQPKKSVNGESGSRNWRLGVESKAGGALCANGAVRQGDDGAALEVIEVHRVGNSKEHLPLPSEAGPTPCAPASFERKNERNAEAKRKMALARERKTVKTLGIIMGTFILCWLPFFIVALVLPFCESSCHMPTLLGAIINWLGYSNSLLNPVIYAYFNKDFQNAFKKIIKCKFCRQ

[5] = target: 5-hydroxytryptamine receptor 6 (Homo sapiens, UniProt P50406); experiment: Displacement of [3H]LSD from human 5HT6 receptor expressed in HEK293 cell membranes after 1 hr by microbeta plate reader method
[6] = target: 5-hydroxytryptamine receptor 2A (Rattus norvegicus, UniProt P14842); experiment: Displacement of [3H]ketanserin from 5HT2A receptor in rat cortical membranes incubated for 15 mins by liquid scintillation spectrometry; assay type: cell membranes
D(2) dopamine receptor [7] = target: D(2) dopamine receptor (Rattus norvegicus, UniProt P61169); experiment: Displacement of [3H]spiperone from dopamine D2 receptor in Sprague-Dawley rat striatal membranes incubated for 40 mins; parameters: species or system Striatum, Membrane
[8] = target: T1, 5-hydroxytryptamine receptor 7; experiment: Binding affinity to 5HT7 (unknown origin)
[9] = target: T1, 5-hydroxytryptamine receptor 7; experiment: Displacement of [3H]5-CT from human 5HT7 receptor expressed in COS7 cells incubated for 30 mins by liquid scintillation counting method; assay type: cell-based

Chain of D(2) dopamine receptor (Homo sapiens, UniProt P14416) (P14416 whole entry): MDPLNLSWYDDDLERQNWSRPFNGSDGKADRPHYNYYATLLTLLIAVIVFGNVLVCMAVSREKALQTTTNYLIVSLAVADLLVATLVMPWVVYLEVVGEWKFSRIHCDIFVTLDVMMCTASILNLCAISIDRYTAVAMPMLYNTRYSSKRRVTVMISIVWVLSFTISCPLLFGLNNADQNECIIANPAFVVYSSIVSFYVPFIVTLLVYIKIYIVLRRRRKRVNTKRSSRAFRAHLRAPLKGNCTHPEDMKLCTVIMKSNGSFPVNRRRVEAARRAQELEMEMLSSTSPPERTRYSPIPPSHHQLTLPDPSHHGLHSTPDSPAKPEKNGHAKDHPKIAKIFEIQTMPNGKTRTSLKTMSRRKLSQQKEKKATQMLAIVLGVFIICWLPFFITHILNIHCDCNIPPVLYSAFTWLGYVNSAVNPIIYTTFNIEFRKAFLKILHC
Chain of 5-hydroxytryptamine receptor 2A (Rattus norvegicus, UniProt P14842) (P14842 whole entry): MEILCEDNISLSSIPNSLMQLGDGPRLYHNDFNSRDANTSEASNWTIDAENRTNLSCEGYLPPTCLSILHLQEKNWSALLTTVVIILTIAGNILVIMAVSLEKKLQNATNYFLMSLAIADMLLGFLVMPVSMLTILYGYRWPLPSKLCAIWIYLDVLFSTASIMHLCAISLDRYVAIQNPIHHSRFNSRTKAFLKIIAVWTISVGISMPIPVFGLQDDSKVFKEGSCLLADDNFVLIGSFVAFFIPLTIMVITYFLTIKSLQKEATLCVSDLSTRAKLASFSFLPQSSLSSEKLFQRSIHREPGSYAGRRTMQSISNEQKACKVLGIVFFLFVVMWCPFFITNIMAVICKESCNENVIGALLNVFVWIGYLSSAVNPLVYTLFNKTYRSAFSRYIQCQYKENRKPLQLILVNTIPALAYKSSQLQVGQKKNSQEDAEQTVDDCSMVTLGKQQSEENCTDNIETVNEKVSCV
Chain of D(2) dopamine receptor (Rattus norvegicus, UniProt P61169) (P61169 whole entry): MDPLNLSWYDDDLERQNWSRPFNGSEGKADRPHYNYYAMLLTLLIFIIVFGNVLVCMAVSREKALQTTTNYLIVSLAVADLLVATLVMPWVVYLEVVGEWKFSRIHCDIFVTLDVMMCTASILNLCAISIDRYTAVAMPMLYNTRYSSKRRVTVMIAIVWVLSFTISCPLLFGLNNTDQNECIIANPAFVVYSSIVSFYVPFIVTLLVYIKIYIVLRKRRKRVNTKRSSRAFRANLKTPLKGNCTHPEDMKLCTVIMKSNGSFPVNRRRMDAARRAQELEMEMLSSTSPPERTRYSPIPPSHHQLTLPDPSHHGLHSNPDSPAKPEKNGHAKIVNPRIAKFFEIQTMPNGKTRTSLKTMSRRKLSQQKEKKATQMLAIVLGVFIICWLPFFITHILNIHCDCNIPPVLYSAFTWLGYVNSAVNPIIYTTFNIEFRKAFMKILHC
Chain of 5-hydroxytryptamine receptor 2A (Homo sapiens, UniProt P28223) (P28223 whole entry): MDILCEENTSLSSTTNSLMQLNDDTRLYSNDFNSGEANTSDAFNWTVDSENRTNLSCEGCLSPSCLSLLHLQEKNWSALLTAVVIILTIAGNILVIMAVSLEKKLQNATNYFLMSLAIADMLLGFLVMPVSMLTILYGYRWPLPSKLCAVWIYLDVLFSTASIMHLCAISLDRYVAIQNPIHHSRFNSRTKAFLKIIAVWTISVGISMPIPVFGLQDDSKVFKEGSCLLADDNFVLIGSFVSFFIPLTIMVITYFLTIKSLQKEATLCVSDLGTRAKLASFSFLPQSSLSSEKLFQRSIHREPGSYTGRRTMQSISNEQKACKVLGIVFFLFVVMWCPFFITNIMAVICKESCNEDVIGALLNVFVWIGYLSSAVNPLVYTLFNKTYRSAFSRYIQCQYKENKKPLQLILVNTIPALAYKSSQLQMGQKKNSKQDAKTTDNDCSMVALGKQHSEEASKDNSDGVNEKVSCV
T1 sequence (P34969 whole entry): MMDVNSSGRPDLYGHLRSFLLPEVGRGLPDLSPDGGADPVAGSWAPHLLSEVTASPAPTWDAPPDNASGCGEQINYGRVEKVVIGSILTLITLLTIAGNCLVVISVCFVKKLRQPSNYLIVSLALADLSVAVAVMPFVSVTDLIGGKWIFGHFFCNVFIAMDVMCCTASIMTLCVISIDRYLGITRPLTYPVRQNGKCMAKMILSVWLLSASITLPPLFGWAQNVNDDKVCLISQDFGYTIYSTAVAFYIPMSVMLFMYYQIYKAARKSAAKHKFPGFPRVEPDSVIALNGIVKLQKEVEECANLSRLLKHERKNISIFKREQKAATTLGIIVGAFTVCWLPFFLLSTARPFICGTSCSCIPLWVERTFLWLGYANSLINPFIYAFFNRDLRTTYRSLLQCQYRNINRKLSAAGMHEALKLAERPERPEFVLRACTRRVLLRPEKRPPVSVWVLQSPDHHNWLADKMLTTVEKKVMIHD
Chain of 5-hydroxytryptamine receptor 6 (P50406 whole entry): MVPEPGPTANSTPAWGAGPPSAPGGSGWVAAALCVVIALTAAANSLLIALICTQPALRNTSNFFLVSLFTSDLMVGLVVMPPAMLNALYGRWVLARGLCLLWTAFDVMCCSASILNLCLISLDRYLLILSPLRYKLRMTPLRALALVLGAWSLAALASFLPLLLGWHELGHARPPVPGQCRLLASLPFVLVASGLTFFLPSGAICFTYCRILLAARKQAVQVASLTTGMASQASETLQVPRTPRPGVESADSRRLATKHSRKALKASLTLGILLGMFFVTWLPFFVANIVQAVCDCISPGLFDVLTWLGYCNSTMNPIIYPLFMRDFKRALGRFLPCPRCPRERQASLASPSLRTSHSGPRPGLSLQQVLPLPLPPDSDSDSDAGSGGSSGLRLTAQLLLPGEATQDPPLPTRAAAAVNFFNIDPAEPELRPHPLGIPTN

Row | Structure (SMILES) | Ki [1] | Ki (D(2) dopamine receptor [2]) | Ki [3] | Ki [4] | Ki [5] | Ki [6] | Ki (D(2) dopamine receptor [7]) | Ki [8] | Ki [9]
1 | O=C1c2cccc3cccc(c23)N1CCCCCCN1CCN(c2ccccc2C(F)(F)F)CC1 | 1770 nM | 161 nM | 17800 nM | 599 nM | 1130 nM | – | – | – | –
2 | O=S1(=O)c2cccc3cccc(c23)N1CCCCCCN1CCN(c2ccccc2Cl)CC1 | 548 nM | 142 nM | 286 nM | 106 nM | 507 nM | – | – | – | –
3 | O=C1c2cccc3cccc(c23)N1CCCCCCN1CCN(c2cccc(Cl)c2)CC1 | 429 nM | 75 nM | 53 nM | 43 nM | 480 nM | – | – | – | –
4 | O=C1c2cccc3cccc(c23)N1CCCCCCN1CCN(c2ccc(Br)cc2)CC1 | 1490 nM | 204 nM | 1830 nM | 688 nM | 3190 nM | – | – | – | –
5 | O=C1c2cccc3cccc(c23)N1CCCCCCN1CCN(c2cccc(Cl)c2Cl)CC1 | 406 nM | 94 nM | 5100 nM | 122 nM | 918 nM | – | – | – | –
6 | O=S1(=O)c2cccc3cccc(c23)N1CCCCCCN1CCN(c2ccccc2F)CC1 | 376 nM | 90 nM | 203 nM | 81 nM | 710 nM | – | – | – | –
7 | O=S1(=O)c2cccc3cccc(c23)N1CCCN1CCN(c2ccc(Cl)cc2)CC1 | – | – | – | – | – | 5 nM | > 1000 nM | – | –
8 | O=S1(=O)c2cccc3cccc(c23)N1CCCCCCN1CCN(c2ccc(Cl)cc2)CC1 | 147 nM | 336 nM | 280 nM | 197 nM | 433 nM | – | – | – | –
9 | COc1ccccc1N1CCN(CCCCN2c3cccc4cccc(c34)S2(=O)=O)CC1 | – | – | – | – | – | – | – | 200 nM | –
10 | O=S1(=O)c2cccc3cccc(c23)N1CCCCCN1CCN(c2ccccc2)CC1 | – | – | – | – | – | – | – | 200 nM | –
11 | O=S1(=O)c2cccc3cccc(c23)N1CCCCCCN1CCN(c2cccc(Cl)c2Cl)CC1 | 177 nM | 220 nM | 140 nM | 149 nM | 237 nM | – | – | – | –
12 | COc1ccc(N2CCN(CCCCC34CCCc5cccc(c53)NC4=O)CC2)cc1 (configuration not stated) | – | – | – | – | – | – | – | – | 20 nM
13 | O=C1c2cccc3cccc(c23)N1CCCCCCN1CCN(c2ccc(Cl)cc2)CC1 | 423 nM | 197 nM | 124 nM | 181 nM | 689 nM | – | – | – | –
14 | O=S1(=O)c2cccc3cccc(c23)N1CCCCCCN1CCN(c2cccc(C(F)(F)F)c2)CC1 | 596 nM | 304 nM | 167 nM | 132 nM | 374 nM | – | – | – | –
15 | O=S1(=O)c2cccc3cccc(c23)N1CCCCCCN1CCN(c2ccccc2)CC1 | – | – | – | – | – | – | – | > 1000 nM | –
16 | COc1ccccc1N1CCN(CCCCCN2c3cccc4cccc(c34)S2(=O)=O)CC1 | – | – | – | – | – | – | – | 251 nM | –

Row | Structure (SMILES) | Ki [1] | Ki (D(2) dopamine receptor [2]) | Ki [3] | Ki [4] | Ki [5] | Ki [6] | Ki (D(2) dopamine receptor [7]) | Ki [8] | Ki [9]
17 | O=C1c2cccc3cccc(c23)N1CCCCCCN1CCN(c2ccccc2F)CC1 | 524 nM | 320 nM | 420 nM | 64 nM | 1730 nM | – | – | – | –
18 | O=C1c2cccc3cccc(c23)N1CCCCCCN1CCN(c2ccc(C(F)(F)F)cc2)CC1 | 4350 nM | 945 nM | 49000 nM | 536 nM | 2040 nM | – | – | – | –
19 | O=S1(=O)c2cccc3cccc(c23)N1CCCCCCN1CCN(c2ccc(C(F)(F)F)cc2)CC1 | 1530 nM | 927 nM | 6000 nM | 989 nM | 937 nM | – | – | – | –
20 | O=S1(=O)c2cccc3cccc(c23)N1CCCN1CCN(c2ccccc2F)CC1 | – | – | – | – | – | 3 nM | > 1000 nM | – | –
21 | O=S1(=O)c2cccc3cccc(c23)N1CCCN1CCN(c2ccc(F)cc2)CC1 [FANANSERIN] | – | – | – | – | – | – | > 1000 nM | – | –
22 | O=C1Nc2cccc3c2C1(CCCCN1CCN(c2ccccc2Cl)CC1)CCC3 (configuration not stated) | – | – | – | – | – | – | – | – | 12 nM
23 | O=S1(=O)c2cccc3cccc(c23)N1CCCN1CCN(c2cccc(F)c2)CC1 | – | – | – | – | – | 18 nM | > 1000 nM | – | –
24 | O=S1(=O)c2cccc3cccc(c23)N1CCCCCCN1CCN(c2cccc(Cl)c2)CC1 | 322 nM | 121 nM | 432 nM | 46 nM | 624 nM | – | – | – | –
25 | O=C1c2cccc3cccc(c23)N1CCCCCCN1CCN(c2ccc(Cl)c(Cl)c2)CC1 | 493 nM | 246 nM | 166 nM | 161 nM | 1860 nM | – | – | – | –
26 | O=C1c2cccc3cccc(c23)N1CCCCCCN1CCN(c2cccc(C(F)(F)F)c2)CC1 | 773 nM | 496 nM | 291 nM | 54 nM | 2210 nM | – | – | – | –
27 | O=S1(=O)c2cccc3cccc(c23)N1CCCN1CCN(c2ccc(Br)cc2)CC1 | – | – | – | – | – | 7 nM | > 1000 nM | – | –
28 | O=C1c2cccc3cccc(c23)N1CCCCCCN1CCN(c2ccccc2Cl)CC1 | 540 nM | 58 nM | 336 nM | 66 nM | 1680 nM | – | – | – | –
29 | O=S1(=O)c2cccc3cccc(c23)N1CCCCCCN1CCN(c2ccc(Cl)c(Cl)c2)CC1 | 251 nM | 254 nM | 404 nM | 79 nM | 225 nM | – | – | – | –
30 | COc1ccccc1N1CCN(CCCCCCN2c3cccc4cccc(c34)S2(=O)=O)CC1 | – | – | – | – | – | – | – | 200 nM | –
31 | O=S1(=O)c2cccc3cccc(c23)N1CCCCN1CCN(c2ccccc2)CC1 | – | – | – | – | – | – | – | 1000 nM | –
